Test results from patent publication US8063225B2, “Tricyclic compound derivatives useful in the treatment of neoplastic diseases, inflammatory disorders and immunomodulatory disorders” (Chembridge Corporation, priority 2006, dated 2011).

Columns and labels:
Alk = molecular target: T1, Alk (Homo sapiens, UniProt Q9UM73); experiment: Tyrosine kinase assay (Kinase-Glo or AlphaScreen), Alk; settings: biochemical tyrosine kinase assay
T1 construct: 6×His- or GST-tagged kinase domain fragments of the corresponding RTKs expressed in baculovirus system; host or cells: baculovirus system
T1 sequence (Q9UM73 1116-1392 limits assumed, species assumed): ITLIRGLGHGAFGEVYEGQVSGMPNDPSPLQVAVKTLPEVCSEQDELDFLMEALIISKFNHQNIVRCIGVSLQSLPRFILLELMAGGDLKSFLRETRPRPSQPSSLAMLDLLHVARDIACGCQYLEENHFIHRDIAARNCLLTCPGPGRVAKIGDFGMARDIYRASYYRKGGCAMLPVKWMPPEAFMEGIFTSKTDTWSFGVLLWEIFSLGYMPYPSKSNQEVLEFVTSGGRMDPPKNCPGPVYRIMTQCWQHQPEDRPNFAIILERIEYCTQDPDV
Outline: (§1)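 Recombinant His- or GST-tagged kinase domains from baculovirus were assayed with poly(Glu-Tyr, 4:1) substrate and 10 μM ATP in Tris-HCl pH 7.5 with Mg2+/Mn2+. Kinase-Glo: 37° C for 60 minutes, residual ATP read by luminescence. IC50 from non-linear regression over eight concentrations, 1 nM to 20 μM.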

InsR = molecular target: T2, InsR (Homo sapiens, UniProt P06213); experiment: Tyrosine kinase assay (Kinase-Glo or AlphaScreen), InsR; settings: biochemical tyrosine kinase assay
T2 construct: 6×His- or GST-tagged kinase domain fragments of the corresponding RTKs expressed in baculovirus system; host or cells: baculovirus system
T2 sequence (P06213 1023-1298 limits assumed, species assumed): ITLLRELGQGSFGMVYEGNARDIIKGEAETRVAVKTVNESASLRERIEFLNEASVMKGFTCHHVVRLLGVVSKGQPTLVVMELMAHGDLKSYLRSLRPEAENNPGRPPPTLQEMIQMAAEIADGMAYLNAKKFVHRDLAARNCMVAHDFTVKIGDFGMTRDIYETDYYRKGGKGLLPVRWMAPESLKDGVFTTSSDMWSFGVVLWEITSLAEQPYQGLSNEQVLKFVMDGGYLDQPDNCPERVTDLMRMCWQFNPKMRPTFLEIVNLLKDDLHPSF
Outline: as §1

K562 = experiment: Cell proliferation inhibition, Cell Titer-Glo, K562; format: cell-based; settings: Homo sapiens; cell proliferation assay, K562 cells
Outline: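 K562 cells were seeded at 2500-5000 cells per well in white, clear-bottomed 384-well culture plates and treated with dilutions of test compounds for typically 3 days. Viable cells were quantified with the Cell Titer-Glo Luminescent Cell Viability Assay (Promega), which measures total ATP, read on a luminescence plate reader to derive IC50 values for proliferation inhibition.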

H929 (multiple myeloma) = experiment: Cell proliferation inhibition, Cell Titer-Glo, H929; format: cell-based; settings: Homo sapiens, NCI-H929; cell proliferation assay, H929 cells
Method: IGF1R and other tyrosine kinase inhibitors can inhibit the proliferation of certain cancer cell lines indicating their possible therapeutic utility for treating the corresponding cancer types. Cancer cell lines of interest and control normal lines, including CHO, HEK293, BA/F3, MM1, H929, COLO205, PC3, DU145, MCF7, Panc1, ACHN, Hep G2, H460, K562, TT, U87-G, CAOV-3, SK-MEL5, Karpas 299, are plated in white, clear-bottomed 384-well cell culture plates at 2500-5000 cells per well and supplied with dilutions of tested compounds After a desired period of time (typically 3 days), the number of viable cells is quantitated by using Cell Titer-Glo Luminescent Cell Viability Assay (Promega), a cell proliferation assay system based on detection of total amount of ATP present as a measure of cell metabolic activity. The plated cells are mixed with the Cell Titer-Glo developing reagent and counted in a luminescence multiwell plate reader according to the standard manufacturer's protocol to generate IC50 curves for cell proliferation inhibition.
IGF1R and other tyrosine kinase inhibitors can inhibit the proliferation of certain cancer cell lines indicating their possible therapeutic utility for treating the corresponding cancer types. Cancer cell lines of interest and control normal lines, including CHO, HEK293, BA/F3, COLO205, PC3, DU145, MCF7, Panc1, ACHN, Hep G2, H460, K562, TT, U87-MG, CAOV-3, SK-MEL5, Karpas 299 and human multiple myeloma cell lines H929, MM1s, MM1r, UTMC2, CPM2, KMS11, My5, KMS12PE, My7, JJN3, KMS18, U266, SKMM2, RPMI-8226 are plated in white, clear-bottomed 384-well cell culture plates at 2500-5000 cells per well and supplied with dilutions of tested compounds After a desired period of time (typically 3 days), the number of viable cells is quantitated by using Cell Titer-Glo Luminescent Cell Viability Assay (Promega), a cell proliferation assay system based on detection of total amount of ATP present as a measure of cell metabolic activity. The plated cells are mixed with the Cell Titer-Glo developing reagent and counted in a luminescence multiwell plate reader according to the standard manufacturer's protocol to generate IC50 curves for cell proliferation inhibition. Results are typically reported as percent of growth (% viability =(OD72h(compound)−ODday0))/(OD72h(no compound)−ODday0). Alternatively, viable cells are quantitated by using the conventional colorimetric MTT assay. The MTT assay is based on the cleavage of the yellow tetrazolium salt MTT to purple formazan crystal by metabolic active cells. The formazan is then solubilized, and the concentration determined by optical density at 570 nm. The cells plated and incubated with a compound as described above are supplemented with the solution of MTT and incubated for 2-3 hours. The growth medium is removed and dimethyl sulfoxide is added into each well to dissolve the formazan. The absorbance is measured on an ELISA plate reader with a test wavelength of 570 nm and a background subtraction wavelength of 630 nm to obtain sample signal (OD570-OD630). […] The results are reported in terms of IC50 value for a particular compound and a cell line in the standard 3-day proliferation assay using Cell Titer-Glo. […] The results are reported in terms of IC50 value for a particular compound and a cell line in the standard 3-day proliferation assay using MTT assay.

IGF1R tyrosine kinase = molecular target: T3, IGF1R tyrosine kinase (Homo sapiens, UniProt P08069); experiment: IGF1R tyrosine kinase assay (Kinase-Glo ATP depletion or PT66/PT100 AlphaScreen); settings: biochemical tyrosine kinase assay
T3 construct: 6×His- or GST-tagged kinase domain fragments of the corresponding RTKs expressed in baculovirus system; host or cells: baculovirus system
T3 sequence (P08069 999-1274 limits assumed): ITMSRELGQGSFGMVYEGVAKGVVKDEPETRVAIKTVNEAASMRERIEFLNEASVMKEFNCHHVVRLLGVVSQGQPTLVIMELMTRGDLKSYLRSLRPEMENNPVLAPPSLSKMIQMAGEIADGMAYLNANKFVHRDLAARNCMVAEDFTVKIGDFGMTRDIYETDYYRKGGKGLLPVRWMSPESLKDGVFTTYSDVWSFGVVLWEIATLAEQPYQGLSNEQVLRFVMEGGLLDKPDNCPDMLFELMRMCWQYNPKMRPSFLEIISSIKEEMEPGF
Outline: as §1

Karpas-299 = experiment: Cell proliferation inhibition, Cell Titer-Glo, Karpas-299; format: cell-based; settings: Homo sapiens; cell proliferation assay, Karpas-299 cells
Outline: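 Karpas 299 cells were seeded into white, clear-bottomed 384-well culture plates at 2500-5000 cells per well and exposed to serial dilutions of test compounds for about 3 days. Viable cell numbers were then measured with the Cell Titer-Glo Luminescent Cell Viability Assay (Promega), which detects total ATP, and IC50 values for proliferation inhibition were derived.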

Ba/F3 = experiment: Cell proliferation inhibition, Cell Titer-Glo, Ba/F3; format: cell-based; settings: Mus musculus, BaF3; cell proliferation assay, Ba/F3 cells
Outline: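 Ba/F3 cells were seeded at 2500-5000 cells per well in white, clear-bottomed 384-well culture plates and exposed to serial dilutions of test compounds for 3 days. Cell Titer-Glo Luminescent Cell Viability Assay (Promega) reagent, which measures total ATP as an indicator of metabolic activity, was added. Luminescence was read on a multiwell plate reader to derive IC50 values for inhibition of proliferation.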

Jak2 = molecular target: T4, Jak2 (Homo sapiens, UniProt O60674); experiment: Tyrosine kinase assay (Kinase-Glo or AlphaScreen), Jak2; settings: biochemical tyrosine kinase assay
T4 construct: 6×His- or GST-tagged kinase domain fragments of the corresponding RTKs expressed in baculovirus system; host or cells: baculovirus system
T4 sequence (O60674 849-1124 limits assumed, species assumed): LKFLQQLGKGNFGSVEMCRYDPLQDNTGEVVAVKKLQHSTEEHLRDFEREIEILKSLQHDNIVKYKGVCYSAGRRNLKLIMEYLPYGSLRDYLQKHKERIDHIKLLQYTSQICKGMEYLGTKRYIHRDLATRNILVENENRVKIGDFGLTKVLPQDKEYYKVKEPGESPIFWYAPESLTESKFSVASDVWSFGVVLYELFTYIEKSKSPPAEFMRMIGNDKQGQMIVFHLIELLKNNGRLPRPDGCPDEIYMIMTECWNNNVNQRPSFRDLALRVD
Outline: as §1

SMILES | IC50 (Alk) [µM] | IC50 (InsR) [µM] | IC50 (K562) [µM] | IC50 (H929 (multiple myeloma)) [µM] | IC50 (IGF1R tyrosine kinase) [µM] | IC50 (Karpas-299) [µM] | IC50 (Ba/F3) [µM] | IC50 (Jak2) [µM]
CN1CCC(N2C(=O)c3cc4nc(-c5c(N[C@@H](CO)Cc6c[nH]cn6)cc[nH]c5=O)[nH]c4cc3C2=O)CC1 [compound 3] | 5 to 15 | 0.5 to 5 | 5 to 15 | 5 to 15 | 0.5 to 5 | 5 to 15 | > 15 | > 15
CN1CCC(N2C(=O)c3cc4nc(-c5c(NC[C@@H](O)COc6ccc7c8c6CCCN8CCC7)cc[nH]c5=O)[nH]c4cc3C2=O)CC1 [compound 86] | 0.5 to 5 | 5 to 15 | 5 to 15 | > 15 | 0.5 to 5 | 5 to 15 | > 15 | 0.5 to 5
Cc1ccc(OC[C@H](O)CNc2cc[nH]c(=O)c2-c2nc3cc4c(cc3[nH]2)C(=O)N(C2CCN(CCCO)CC2)C4=O)c(C)c1 [compound 129] | 0.5 to 5 | < 0.5 | 5 to 15 | 5 to 15 | < 0.5 | 5 to 15 | 5 to 15 | 0.5 to 5
COCCN1C(=O)c2cc3nc(-c4c(NC[C@@H](O)c5cccc(Cl)c5)cc[nH]c4=O)[nH]c3cc2C1=O [compound 36] | > 15 | > 15 | > 15 | 0.5 to 5 | > 15 | > 15 | > 15 | > 15
Cc1c(Cl)cccc1OC[C@H](O)CNc1cc[nH]c(=O)c1-c1nc2cc3c(cc2[nH]1)C(=O)N(CC(C)(C)CN(C)C)C3=O [compound 117] | 5 to 15 | < 0.5 | > 15 | > 15 | < 0.5 | 5 to 15 | > 15 | 0.5 to 5
Cc1ccc(OC[C@H](O)CNc2cc[nH]c(=O)c2-c2nc3cc4c(cc3[nH]2)C(=O)N(CC(C)(C)CN(C)C)C4=O)c(C)c1 [compound 116] | 5 to 15 | < 0.5 | > 15 | > 15 | < 0.5 | 5 to 15 | > 15 | 0.5 to 5
CN1CCC(N2C(=O)c3cc4nc(-c5c(NCCc6c[nH]cn6)cc[nH]c5=O)[nH]c4cc3C2=O)CC1 [compound 4] | 0.5 to 5 | 0.5 to 5 | 5 to 15 | 5 to 15 | 0.5 to 5 | 0.5 to 5 | 5 to 15 | 0.5 to 5
Cc1ccc(OC[C@H](O)CNc2cc[nH]c(=O)c2-c2nc3cc4c(cc3[nH]2)C(=O)N(C2CCN(CCO)CC2)C4=O)c(C)c1 [compound 123] | 0.5 to 5 | 0.5 to 5 | > 15 | > 15 | < 0.5 | > 15 | > 15 | 0.5 to 5
O=C1c2cc3nc(-c4c(NC[C@@H](O)COc5c(F)ccc(Cl)c5F)cc[nH]c4=O)[nH]c3cc2C(=O)N1C1CCN(CCO)CC1 [compound 125] | 0.5 to 5 | 0.5 to 5 | > 15 | > 15 | < 0.5 | > 15 | > 15 | 0.5 to 5
